Source: the supplement of paper PMC11061612

Key:
Test in all cases: combination Emax (second highest fraction inhibited in the dose matrix, 72 h); higher = more inhibition; extreme values may be limits of the assay
YH-13 (Glioblastoma) = test system: YH-13 (Glioblastoma)
Procedure, shortened: (§1)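 After 24 hours at 37°C and 5% CO2 in 1536-well plates, cells in DMEM/F12 or RPMI plus 10% FBS received two-drug dose matrices for 72 hours. Viability came from CellTiter-Glo 2.0 luminescence and was scaled as inhibition, anchored at 0 by vehicle wells and at 1 by blank wells. Combination Emax is taken as the second-highest inhibition in the matrix, and Bliss excess as the observed combination effect less EA + EB − EA·EB, with EA and EB the single-agent effects.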

EW-24 (Ewing's Sarcoma) = test system: EW-24 (Ewing's Sarcoma)
Procedure, shortened: as §1

[1] = test system: KARPAS-299 (T-Cell Non-Hodgkin's Lymphoma)
Procedure, shortened: as §1

[2] = test system: BT-549 (Breast Carcinoma)
Procedure, shortened: as §1

TGW (Neuroblastoma) = test system: TGW (Neuroblastoma)
Procedure, shortened: as §1

TK10 (Kidney Carcinoma) = test system: TK10 (Kidney Carcinoma)
Procedure, shortened: as §1

[3] = test system: NCI-H358 (Lung Adenocarcinoma)
Procedure, shortened: as §1

[4] = test system: PANC-04-03 (Pancreatic Carcinoma)
Procedure, shortened: as §1

[5] = test system: EoL-1-cell (Acute Myeloid Leukemia)
Procedure, shortened: as §1

ACHN (Kidney Carcinoma) = test system: ACHN (Kidney Carcinoma)
Procedure, shortened: as §1

[6] = test system: NCI-H727 (Other Solid Carcinomas)
Procedure, shortened: as §1

[7] = test system: LU-65 (Non-Small Cell Lung Carcinoma)
Procedure, shortened: as §1

[8] = test system: MLMA (Other Blood Carcinomas)
Procedure, shortened: as §1

D-263MG (Glioblastoma) = test system: D-263MG (Glioblastoma)
Procedure, shortened: as §1

[9] = test system: Ca9-22 (Head and Neck Carcinoma)
Procedure, shortened: as §1

UACC-62 (Melanoma) = test system: UACC-62 (Melanoma)
Procedure, shortened: as §1

[10] = test system: AMO-1 (Plasma Cell Myeloma)
Procedure, shortened: as §1

[11] = test system: Caov-4 (Ovarian Carcinoma)
Procedure, shortened: as §1

[12] = test system: Hs-766T (Pancreatic Carcinoma)
Procedure, shortened: as §1

NB69 (Neuroblastoma) = test system: NB69 (Neuroblastoma)
Procedure, shortened: as §1

SMILES | combination Emax (YH-13 (Glioblastoma)) | combination Emax (EW-24 (Ewing's Sarcoma)) | combination Emax [1] | combination Emax [2] | combination Emax (TGW (Neuroblastoma)) | combination Emax (TK10 (Kidney Carcinoma)) | combination Emax [3] | combination Emax [4] | combination Emax [5] | combination Emax (ACHN (Kidney Carcinoma)) | combination Emax [6] | combination Emax [7] | combination Emax [8] | combination Emax (D-263MG (Glioblastoma)) | combination Emax [9] | combination Emax (UACC-62 (Melanoma)) | combination Emax [10] | combination Emax [11] | combination Emax [12] | combination Emax (NB69 (Neuroblastoma))
Cc1cc2ncnn2cc1Nc1ncc2c(n1)n(C1CCOCC1)c(=O)n2C [AZD7648] + CCN(CCO)CCCOc1ccc2c(Nc3cc(CC(=O)Nc4cccc(F)c4)[nH]n3)ncnc2c1 [AZD2811] (first compound max 10 µM, 7x7, partner max 1 µM) | 0.482 | 0.45 | 0.326 | 0.361 | 0.351 | 0.42 | 0.326 | 0.284 | 0.984 | 0.329 | 0.287 | 0.37 | 0.351 | 0.473 | 0.3 | 0.312 | 0.469 | 0.445 | 0.422 | 0.655
CN(CCO)CC[C@H](CSc1ccccc1)Nc1ccc(S(=O)(=O)NC(=O)c2ccc(N3CCC([C@@H](O)c4ccccc4-c4ccc(Cl)cc4)CC3)cc2)cc1S(=O)(=O)C(F)(F)F [AZD4320] + CCN(CCO)CCCOc1ccc2c(Nc3cc(CC(=O)Nc4cccc(F)c4)[nH]n3)ncnc2c1 [AZD2811] (first compound max 1 µM, 7x7, partner max 1 µM) | 0.704 | 0.865 | 0.191 | 0.432 | 0.928 | 0.439 | 0.269 | 0.138 | 1 | 0.207 | 0.512 | 0.432 | 0.228 | 0.653 | 0.572 | 0.201 | 0.291 | 0.448 | 0.171 | 0.902
COc1cc2c(cc1OCCCCCOc1cc3c(cc1OC)C(=O)N1C=C(C)C[C@H]1C=N3)N=C[C@@H]1CC(C)=CN1C2=O [SG3199] + O=C(c1cc(Cc2n[nH]c(=O)c3ccccc23)ccc1F)N1CCN(C(=O)C2CC2)CC1 [Olaparib] (first compound max 0.001 µM, 7x7, partner max 10 µM) | 0.16 | 0.196 | 0.0832 | 0.095 | 0.166 | 0.0517 | 0.0868 | 0.114 | 0.319 | 0.0891 | 0.24 | 0.24 | 0.164 | 0.0915 | 0.0924 | 0.0735 | 0.0932 | 0.165 | 0.0914 | 0.444
Cc1cc2ncnn2cc1Nc1ncc2c(n1)n(C1CCOCC1)c(=O)n2C [AZD7648] + O=C(c1cc(Cc2n[nH]c(=O)c3ccccc23)ccc1F)N1CCN(C(=O)C2CC2)CC1 [Olaparib] (first compound max 10 µM, 7x7, partner max 10 µM) | 0.16 | 0.214 | 0.151 | 0.18 | 0.344 | 0.234 | 0.279 | 0.183 | 0.42 | 0.211 | 0.218 | 0.312 | 0.279 | 0.094 | 0.113 | 0.253 | 0.196 | 0.199 | 0.353 | 0.541
CN(CCO)CC[C@H](CSc1ccccc1)Nc1ccc(S(=O)(=O)NC(=O)c2ccc(N3CCC([C@@H](O)c4ccccc4-c4ccc(Cl)cc4)CC3)cc2)cc1S(=O)(=O)C(F)(F)F [AZD4320] + C1CN(CCC1(C(=O)N[C@@H](CCO)C2=CC=C(C=C2)Cl)N)C3=NC=NC4=C3C=CN4 [Capivasertib] (first compound max 1 µM, 7x7, partner max 3 µM) | 0.266 | 0.869 | 0.0749 | 0.294 | 0.924 | 0.39 | 0.273 | 0.178 | 1 | 0.121 | 0.484 | 0.612 | 0.384 | 0.0907 | 0.301 | 0.341 | 0.317 | 0.131 | 0.204 | 0.652
Cc1cc2ncnn2cc1Nc1ncc2c(n1)n(C1CCOCC1)c(=O)n2C [AZD7648] + COc1cc([C@@H]2c3cc4c(cc3[C@@H](O[C@@H]3O[C@@H]5CO[C@@H](C)O[C@H]5[C@H](O)[C@H]3O)[C@H]3COC(=O)[C@H]23)OCO4)cc(OC)c1O [Etoposide] (first compound max 10 µM, 7x7, partner max 10 µM) | 0.641 | 0.714 | 0.976 | 0.736 | 0.522 | 0.592 | 0.628 | 0.335 | 1 | 0.772 | 0.269 | 0.897 | 0.816 | 0.618 | 0.869 | 0.642 | 0.942 | 0.744 | 0.253 | 0.946
